# In patent publication US20260166021A1, “POLYMORPHIC FORMS OF A SOLUBLE EPOXIDE HYDROLASE INHIBITOR AND FORMULATIONS THEREOF” (EicOsis, LLC, priority 2022, published 2026):
# “And” between values parts separate entries of the source, which are not always exact repeats. Equal entries are not always repeated. Marks after values point to notes of the source that are not given here.
# Assays:
# Type in all cases: physicochemical
# [1] = Thermal gravimetric analysis (TGA); settings: below 150° C.
# Protocol: Thermal gravimetric analyses were performed on each sample “as is.” Unless otherwise noted, samples were weighed in an alumina crucible and analyzed from 30-350° C. at 10° C./min.
# Form C weight loss at 39° C.-50° C. likely reflected methanol loss.
# [2] = Supersaturation monitoring in PEG 300; settings: for Step → Observation: PEG 300 (0.5 mL)
# [3] = Competitive slurry experiments (solvent-mediated polymorph transformation, XRD); settings: 1 and 7 days
# Protocol: Polymorph stability and interconversions were analyzed with competitive slurry experiments. The competitive slurry (solvent-mediated transformation) experiments were performed on Forms A, B, D, E, F, G, and I generated through scaled-up crystallization (summarized in TABLE 11). […] The suspensions were aliquoted at one day and seven days and filtered to isolate the solids. Remaining solid was analyzed by XRD without drying.
# In FIG. 66, the second spectrum from the top corresponds to Form E. These XRD data confirmed that Patterns C, K, and D were afforded in these solvents.
# In order to further confirm the rank of stability order of the selected forms and extend the temperature range of stability relationship up to 70° C. covering potential API process conditions, binary form slurries were conducted with starting mixtures of (1) Forms A and D, and (2) Forms D and E. The resultant polymorphs were characterized with XRD after 1 and 7 days, the results of which analyses are shown in FIGURE S 67-68 and summarized in TABLE 13. Pattern D stood out from both binary mixture slurries of A & D and of D & E after seven-day stirring at the elevated temperature.
# Additional single form slurry experiments were conducted on Forms A, D, and E in either water or heptane at room temperature. […] In agreement with prior competitive slurry experiments, Form D was stable at room temperature in n-heptane. Pattern E was obtained from slurries starting with Forms A and E in n-heptane. As expected, Form C was formed from the Pattern E slurry in water.
# [4] = Equilibrium-solubility screening in solvents and excipients
# Protocol: For these analyses, Form D or Form C was mixed with 0.5 or 1.0 mL of solvents and equilibrated for approximately 24 hours. The mixture was filtered through 0.45 μm centrifuge filters.
# As expected, the compound was not easily ionized at physiologically relevant pH. […] In addition, these excipients included surfactants, co-solvents, and lipids which are amenable for use in self-emulsifying drug delivery systems (SEDDS). The XRD pattern of the starting material was maintained for each sample after equilibrium.
# [5] = Capmul MCM, (medium name cut off)
# [6] = Castor Oil, (medium name cut off)
structure (smiles),measurement,setting,value
"CC[C@H](C)C(=O)N1CCC(NC(=O)Nc2ccc(OC(F)(F)F)c(F)c2)CC1 [Form D, (S)-1-(3-fluoro-4-(trifluoromethoxy)phenyl)-3-(1-(2-methylbutanoyl)piperidin-4-yl)urea]",TGA: wt change,[1],No wt change below
same,Step → Observation,"[2]; 100 mg/mL, 1. RT stirring for 1 hr, listed as Pattern D",1. RT stirring for 1 hr → suspension
same,Step → Observation,"[2]; 100 mg/mL, 2. 40 C. heating for 0.5 hr, listed as Pattern D",2. 40 C. heating for 0.5 hr → clear solution
same,Step → Observation,"[2]; 100 mg/mL, 3. RT storage for ~8 days, listed as Pattern D",3. RT storage for ~8 days → clear solution
same,Step → Observation,"[2]; 100 mg/mL, 4. RT storage for ~9 days, listed as Pattern D",4. RT storage for ~9 days → precipitation
same,Step → Observation,"[2]; 200 mg/mL, 1. RT stirring for 1 hr",1. RT stirring for 1 hr →suspension
same,Step → Observation,"[2]; 200 mg/mL, 2. 40 C. heating for 48 hr, listed as Pattern D",2. 40 C. heating for 48 hr →suspension
same,Step → Observation,"[2]; 200 mg/mL, 3. 55 C. heating for <16 hr",3. 55 C. heating for <16 hr →clear solution
same,Step → Observation,"[2]; 200 mg/mL, 4. RT storage for <3.5 days",4. RT storage for <3.5 days →precipitation
same,Step → Observation,"[2]; 200 mg/mL, 5. 55 C. reheating for overnight",5. 55 C. reheating for overnight →clear solution
same,Step → Observation,"[2]; 200 mg/mL, 6. RT storage for overnight",6. RT storage for overnight →precipitation
same,polymorph stability in binary form slurries,"[3]; mixtures A & D and D & E, n-heptane, up to 70° C.",most thermodynamically stable
same,single form slurry in n-heptane: resultant polymorph,"[3]; n-heptane, room temperature",stable
same,polymorph stability in competitive slurry,"[3]; room temperature, water, MTBE or n-heptane, listed as Pattern D",most stable form
same,Equilibrium Solubility,[4]; Campul MCM,56.2 mg/mL
same,XRD Pattern At Equilibrium,[4]; Campul MCM,Form D
same,XRD Pattern At Equilibrium,[4]; Canola Oil,Form D
same,solubility thermodynamic at 24 h,"[4]; Canola Oil, oil or lipid, thermodynamic from solid",< 100 µg/mL
same,Equilibrium Solubility,[4]; [5],24.5 mg/mL
same,XRD Pattern At Equilibrium,[4]; [5],Form D
same,Equilibrium Solubility,[4]; Captex 355,2.0 mg/mL
same,XRD Pattern At Equilibrium,[4]; Captex 355,Form D
same,Equilibrium Solubility,[4]; Castor Oil,5.5 mg/mL
same,XRD Pattern At Equilibrium,[4]; Castor Oil,Form D
same,Equilibrium Solubility,[4]; [6],42.6** mg/mL
same,XRD Pattern At Equilibrium,[4]; [6],Form D
same,XRD Pattern At Equilibrium,[4]; Corn Oil,Form D
same,solubility thermodynamic at 24 h,"[4]; Corn Oil, oil or lipid, thermodynamic from solid",< 100 µg/mL
same,XRD Pattern At Equilibrium,[4]; DI water,Form C (minor
same,"XRD Pattern At Equilibrium, minor form",[4]; DI water,Form D)
same,solubility thermodynamic at 24 h,"[4]; DI water, water, thermodynamic from solid, approximately 24 hours",< 100 µg/mL
same,Equilibrium Solubility,[4]; FaSSIF,0.2 mg/mL
same,XRD Pattern At Equilibrium,[4]; FaSSIF,Form D
same,solubility thermodynamic at 24 h,"[4]; FaSSIF, thermodynamic from solid",< 100 µg/mL
same,Equilibrium Solubility,[4]; Gelucire 44/14,37.7** mg/mL
same,XRD Pattern At Equilibrium,[4]; Gelucire 44/14,Form D
same,XRD Pattern At Equilibrium,[4]; Glycerol,Form D
same,solubility thermodynamic at 24 h,"[4]; Glycerol, organic solvent or mixture, thermodynamic from solid",< 100 µg/mL
same,Equilibrium Solubility,[4]; Intralipid,0.1 mg/mL
same,XRD Pattern At Equilibrium,[4]; Intralipid,Form D
same,Equilibrium Solubility,[4]; Kolliphor,1.4 mg/mL
same,XRD Pattern At Equilibrium,[4]; Kolliphor,Form D
same,Equilibrium Solubility,[4]; Kolliphor EL,20.4 mg/mL
same,XRD Pattern At Equilibrium,[4]; Kolliphor EL,Form D
same,Equilibrium Solubility,[4]; Kolliphor HS-,37.3** mg/mL
same,XRD Pattern At Equilibrium,[4]; Kolliphor HS-,Form D
same,Equilibrium Solubility,[4]; Labrafil,9.6 mg/mL
same,XRD Pattern At Equilibrium,[4]; Labrafil,Form D
same,Equilibrium Solubility,[4]; Labrasol,21.8 mg/mL
same,XRD Pattern At Equilibrium,[4]; Labrasol,Form D
same,Equilibrium Solubility,[4]; Miglyol 810,2.0 mg/mL
same,XRD Pattern At Equilibrium,[4]; Miglyol 810,Form D
same,Equilibrium Solubility,[4]; Miglyol 812,1.9 mg/mL
same,XRD Pattern At Equilibrium,[4]; Miglyol 812,Form D
same,solubility thermodynamic at 24 h,"[4]; NaOH solution, pH 10.0, pH 10, aqueous buffer, thermodynamic from solid, pH 10.0 NaOH",< 100 µg/mL
same,Equilibrium Solubility,[4]; Oleic Acid,9.0 mg/mL
same,XRD Pattern At Equilibrium,[4]; Oleic Acid,Form D
same,Equilibrium Solubility,"[4]; PEG 300, 50%",0.4 mg/mL and 0.5 mg/mL
same,XRD Pattern At Equilibrium,"[4]; PEG 300, 50%",Form D
same,XRD Pattern At Equilibrium,"[4]; PEG 300, 100%",Form D
same,XRD Pattern At Equilibrium,"[4]; PEG 400, 50%",Form D
same,solubility thermodynamic at 24 h,"[4]; PEG 400, 50%, aqueous with cosolvent or surfactant or cyclodextrin, thermodynamic from solid",900 µg/mL
same,Equilibrium Solubility,"[4]; PEG 400, 100%",17.0 mg/mL
same,XRD Pattern At Equilibrium,"[4]; PEG 400, 100%",Form D
same,solubility thermodynamic at 24 h,"[4]; PEG 400, 100%, organic solvent or mixture, thermodynamic from solid",20100 µg/mL
same,Equilibrium Solubility,[4]; Peceol,12.9 mg/mL
same,XRD Pattern At Equilibrium,[4]; Peceol,Form D
same,Equilibrium Solubility,[4]; Plurol Oleique,8.7 mg/mL
same,XRD Pattern At Equilibrium,[4]; Plurol Oleique,Form D
same,Equilibrium Solubility,[4]; Propylene,24.1 mg/mL
same,XRD Pattern At Equilibrium,[4]; Propylene,Form D
same,XRD Pattern At Equilibrium,"[4]; SLS, 1x CMC",Form C
same,solubility thermodynamic at 24 h,"[4]; SLS, 1x CMC, aqueous with cosolvent or surfactant or cyclodextrin, thermodynamic from solid",< 100 µg/mL
same,Equilibrium Solubility,"[4]; SLS, 5x CMC",1.2 mg/mL
same,XRD Pattern At Equilibrium,"[4]; SLS, 5x CMC",Form C
same,Equilibrium Solubility,"[4]; SLS, 10x CMC",1.5 mg/mL
same,XRD Pattern At Equilibrium,"[4]; SLS, 10x CMC",Form C
same,Equilibrium Solubility,"[4]; SLS, 100x CMC",2.5 mg/mL
same,XRD Pattern At Equilibrium,"[4]; SLS, 100x CMC",Form C
same,XRD Pattern At Equilibrium,[4]; Soybean Oil,Form D
same,solubility thermodynamic at 24 h,"[4]; Soybean Oil, oil or lipid, thermodynamic from solid",< 100 µg/mL
same,Equilibrium Solubility,[4]; Sulfobutylether,7.9 mg/mL
same,XRD Pattern At Equilibrium,[4]; Sulfobutylether,Form D
same,Equilibrium Solubility,[4]; Transcutol HP,38.1 mg/mL
same,XRD Pattern At Equilibrium,[4]; Transcutol HP,Form D
same,Equilibrium Solubility,[4]; Triacetin,6.4 mg/mL
same,XRD Pattern At Equilibrium,[4]; Triacetin,Form D
same,XRD Pattern At Equilibrium,"[4]; Tween 80, 1x",Form C
same,solubility thermodynamic at 24 h,"[4]; Tween 80, 1x, aqueous with cosolvent or surfactant or cyclodextrin, thermodynamic from solid",< 100 µg/mL
same,XRD Pattern At Equilibrium,"[4]; Tween 80, 5x",Form C
same,solubility thermodynamic at 24 h,"[4]; Tween 80, 5x, aqueous with cosolvent or surfactant or cyclodextrin, thermodynamic from solid",< 100 µg/mL
same,XRD Pattern At Equilibrium,"[4]; Tween 80, 10x",Form C
same,solubility thermodynamic at 24 h,"[4]; Tween 80, 10x, aqueous with cosolvent or surfactant or cyclodextrin, thermodynamic from solid",< 100 µg/mL
same,XRD Pattern At Equilibrium,"[4]; Tween 80, 100x",Form C
same,solubility thermodynamic at 24 h,"[4]; Tween 80, 100x, aqueous with cosolvent or surfactant or cyclodextrin, thermodynamic from solid",< 100 µg/mL
same,Equilibrium Solubility,[4]; Vitamin E,40.6** mg/mL
same,XRD Pattern At Equilibrium,[4]; Vitamin E,Form D
same,XRD Pattern At Equilibrium,[4]; pH 1.0 HCl,Forms C & D
same,solubility thermodynamic at 24 h,"[4]; pH 1.0 HCl, pH 1, simulated gastric fluid, thermodynamic from solid",< 100 µg/mL
same,XRD Pattern At Equilibrium,[4]; pH 7.4,Form D
same,solubility thermodynamic at 24 h,"[4]; pH 7.4 medium (buffer not named), pH 7.4, aqueous buffer, thermodynamic from solid, pH 7.4",< 100 µg/mL
same,XRD Pattern At Equilibrium,[4]; pH 10.0 NaOH,Forms C & D
"CC[C@H](C)C(=O)N1CCC(NC(=O)Nc2ccc(OC(F)(F)F)c(F)c2)CC1 [Formula (I), (S)-1-(3-fluoro-4-(trifluoromethoxy)phenyl)-3-(1-(2-methylbutanoyl)piperidin-4-yl)urea]",time without visual precipitation in PEG300,"[2]; 100 mg/mL in PEG300, room temperature",9 days
same,precipitation from PEG300,[2]; 200 mg/mL in PEG300,readily precipitated overnight
same,solubility thermodynamic,"[4]; organic solvent or mixture, thermodynamic from solid, PEG300, PEG400, propylene glycol, vitamin E TPGS, Gelucire 44/14, castor oil hydrogenated, Capmul MCM NF, Capmul MCM EP, Kolliphor HS-15, Kolliphor EL, Labrasol, Transcutol HP, approx. 24 hours",> 20000 µg/mL
